Measured values taken from paper PMC11407620, “Repurposing auranofin and meclofenamic acid as energy-metabolism inhibitors and anti-cancer drugs” (PLOS ONE, 2024).
Where two headings read alike, the source gives them in different places.

What was measured:
[1] = tested on: AS-30D hepatoma mitochondria; test: Oxygen consumption of isolated mitochondria; type: biochemical, rat; design: Net State 3 oxygen consumption rate: unit not given here; conditions: for Net State 3 (State 3 –pseudoState 4) oxygen consumption rate / Pseudo State 4 oxygen consumption rate / RC (State 3/ State 4), respiratory control / State 3 oxygen consumption rate / State 4 oxygen consumption rate / Net State 3 oxygen consumption rate / RC (State 3/ State 4): Hepatoma mitochondria
Method: AS-30D hepatocarcinoma cells were propagated in the peritoneal cavity of 200–250 g weight female Wistar rats by intra-peritoneal inoculation of 3 mL of a cellular suspension containing approximately 4 × 10^8 cells/mL [36]. After 5–6 days, the rats were sacrificed by cervical dislocation and AS-30D ascites liquid was extracted from peritoneal area with a sterile syringe and collected in 50 mL-plastic tubes. The hepatoma cells were harvested by centrifugation and washed once by centrifugation in KR buffer. For mitochondria isolation from AS-30D hepatoma, cells were permeabilized with digitonin (Sigma Aldrich, CA, USA) at 10–40 μg/mg cellular protein concentration.
Respiration of AS-30D, liver and heart mitochondria (1 mg protein/mL) was assayed oxygraphically with a Clark-type O2 electrode in KME (120 mM KCl, 20 mM Mops, 1 mM EGTA) buffer pH 7.2 plus 2 mM KH2PO4, and different oxidizable substrates (as indicated in Results). For state 3 respiration, 600 nmol ADP were added. Mitochondria were incubated at 37°C with Aur and MA for 30–60 s before substrates were added. At the end of each respiratory measurement, dithionite was added to get the chemical zero oxygen signal.
Isolated mitochondria (1mg protein/mL) were incubated in KME buffer (120 mM KCl, 20 mM MOPS, 1 mM EGTA) pH 7.20 plus 2 mM KH2PO4 and the indicated oxidizable substrates. For state 3 (ADP-stimulated) respiration, 300-600 nmol ADP were added. RC, respiratory control; n=3. To get the maximal reduction of molecular oxygen (zero oxygen concentration), sodium dithionite (Na2O4S2) was added at the end of each measurement.

HeLa cells = test: OxPhos flux (oligomycin-sensitive respiration) in intact cells; type: cell-based, human; conditions: 24 h
Method: (§1) For oxidative phosphorylation (OxPhos) flux, cells (2–5 mg protein/mL) were incubated at 37°C in air saturated KR medium plus 5 mM glucose. To distinguish the oxygen consumption associated to OxPhos, the cells were incubated with 5 μM oligomycin (Sigma-Aldrich, MO, USA), a potent, specific, and permeable inhibitor of the mitochondrial ATP synthase. The net OxPhos rate was determined by using a Clark type electrode, as previously described and by using a high-resolution respirometer (Oroboros Instruments, Innsbruck, Austria) at 37°C. The contribution of OxPhos and glycolysis to the cellular ATP supply was determined, respectively, from the net OxPhos rate (oligomycin-sensitive respiration) multiplied by the ATP/O or P»/O2 ratio that corresponds to 2.5 or 5, and from the rate of lactate production, assuming a stoichiometry of 1 mol of ATP produced per 1 mol of lactate produced.

MDA-MB-231 cells = test: as above; type: cell-based, human; conditions: 24 h
Method: as §1

Cervix HeLa cells = test: Cell proliferation, 24 h drug exposure; type: cell-based, human; conditions: for IC50: Cervix HeLa, 24 h, read-out: IC50 for proliferation cell rate; for effect on proliferation after shorter exposure: HeLa cells, 12 h exposure; for TI ratio (3T3/ cancer cells): IC50 3T3 / IC50 HeLa; for TI ratio (H9C2/cancer cells): IC50 H9C2 / IC50 HeLa
Method: All metastatic (breast MDA-MB231, MDA-MB468, cervix HeLa, prostate PC3, colorectal HCT116, COLO205, glioblastoma U373), low-metastatic (breast MCF-7) cancer and non-cancer (fibroblast 3T3, cardiomyocytes H9C2) cell lines (American Type Culture Collection, Rockville, MD, USA) used in this study were cultured in Petri dishes in 20 mL of Dulbecco’s Modified Eagle’s Medium (DMEM, Sigma, MO, USA) supplemented with 10% fetal bovine serum (Biowest, Mexico) and 10,000 U penicillin/streptomycin (Sigma-Aldrich, MO, USA). […] For growth and maintenance, cells were incubated in 5% CO2/95% air at 37°C and kept until 80–90% of confluence was reached. Then, cells were harvested, washed by centrifugation and resuspended in Krebs-Ringer buffer (KR, 125 mM NaCl, 5 mM KCl, 25 mM Hepes, 1 mM MgCl2, 1 mM KH2PO4, 1.4 mM CaCl2, pH 7.4) for further use. For experimentation, cancer cells (3–5 x 10^6 cells) were cultured in DMEM (with 25 mM glucose) for 24 h in the absence of drugs. Afterwards, old-medium was replaced with fresh DMEM medium (with 25 mM glucose) in the absence (control, non-treated cells) or in the presence of logarithmic concentrations of Aur and MA for 24 h more, under the same culture conditions described above. Viability of cultured cells was determined by the trypan blue exclusion assay. The protein concentration was determined by the Lowry method.
For cell proliferation in the presence of drugs, cancer cells (20 x 10^3 cells/well) were grown in 96-well plates containing DMEM (Sigma-Aldrich) plus 10% bovine fetal serum for 24 h. […] The effect of these drugs on cell proliferation was determined in 96-well plates by the MTT (3-[4,5-dimethyl-thiazol-2-yl]-2,5-diphenyltetrazolium bromide) assay. The viability of cancer cells was > 95% after treatment with drugs.

[2] = tested on: HeLa, MDA-MB-231 and MDA-MB-468 cells; test: Energy metabolism pathway fluxes in intact cancer cells, pooled; type: cell-based, human; conditions: 24 h
Method: For glycolysis flux, cells (3 mg protein/mL) were incubated in KR buffer. Glycolysis was started by adding 5 mM external glucose (Sigma-Aldrich, MO, USA), and cellular samples were withdrawn after 0 and 10 min of incubation at 37°C under smooth orbital shaking. At the indicated times, the cells were rapidly mixed with 3% (w/v) ice-cold perchloric acid and centrifuged. The supernatants were neutralized with 1N KOH/100mM Tris. To rule out lactate production by glutaminolysis, cells were also incubated with 10 mM 2-deoxyglucose (Sigma-Aldrich, MO, USA). Lactate was determined by a standard method with lactate dehydrogenase (Roche, Mannheim, Germany) following the NADH formation at 340 nm.
as §1, with “To distinguish the oxygen consumption associated to OxPhos, the cells were incubated with 5 μM oligomycin (Sigma-Aldrich, MO, USA), a potent, specific, and permeable inhibitor of the mitochondrial ATP synthase.” left out

[3] = 5 mM Glutamate/0.1 mM Malate, 10 μM Aur
[4] = 5 mM Glutamate/0.1 mM Malate, 25 μM Aur
[5] = 5 mM Glutamate/0.1 mM Malate, 50 μM Aur
[6] = 5 mM Glutamate/0.1 mM Malate, 100 μM Aur
[7] = Succinate 0.5 mM + Rotenone 2 µM, 10 µM Aur
[8] = Succinate 0.5 mM + Rotenone 2 µM, 25 µM Aur
[9] = Succinate 0.5 mM + Rotenone 2 µM, 50 µM Aur
[10] = Succinate 0.5 mM + Rotenone 2 µM, 100 µM Aur
[11] = 5 mM Glutamate/0.1 mM Malate, 5 μM MA
[12] = 5 mM Glutamate/0.1 mM Malate, 10 μM MA

CC(=O)OC[C@H]1O[C@@H]([S-])[C@H](OC(C)=O)[C@@H](OC(C)=O)[C@@H]1OC(C)=O.CCP(CC)CC.[Au+] [Aur, [1-(thio-κS)-β-D-glucopyranose-2,3,4,6-tetraacetyl] (triethylphosphine)-gold]
Net State 3 (State 3 –pseudoState 4) oxygen consumption rate [1, 3]: 91.5 ± 8 nmol O2 min^-1 mg protein^-1 | Pseudo State 4 oxygen consumption rate [1, 3]: 33.5 ± 2 nmol O2 min^-1 mg protein^-1 | RC (State 3/ State 4), respiratory control [1, 3]: 2.8 ± 0.5 | State 3 oxygen consumption rate [1, 3]: 125 ± 9 nmol O2 min^-1 mg protein^-1 | State 4 oxygen consumption rate [1, 3]: 44 ± 6 nmol O2 min^-1 mg protein^-1 | Net State 3 (State 3 –pseudoState 4) oxygen consumption rate [1, 4]: 78 ± 29 nmol O2 min^-1 mg protein^-1 | Pseudo State 4 oxygen consumption rate [1, 4]: 37 ± 5 nmol O2 min^-1 mg protein^-1 | RC (State 3/ State 4), respiratory control [1, 4]: 2.6 ± 0.5 | State 3 oxygen consumption rate [1, 4]: 114± 31 nmol O2 min^-1 mg protein^-1 | State 4 oxygen consumption rate [1, 4]: 43 ± 3 nmol O2 min^-1 mg protein^-1 | Net State 3 (State 3 –pseudoState 4) oxygen consumption rate [1, 5]: 80 ± 39 nmol O2 min^-1 mg protein^-1 | Pseudo State 4 oxygen consumption rate [1, 5]: 52.5 ± 11 nmol O2 min^-1 mg protein^-1 | RC (State 3/ State 4), respiratory control [1, 5]: 2.2 ± 0.5 | State 3 oxygen consumption rate [1, 5]: 133± 46 nmol O2 min^-1 mg protein^-1 | State 4 oxygen consumption rate [1, 5]: 74 ± 28 nmol O2 min^-1 mg protein^-1 | Net State 3 (State 3 –pseudoState 4) oxygen consumption rate [1, 6]: 68 ± 41 nmol O2 min^-1 mg protein^-1 | Pseudo State 4 oxygen consumption rate [1, 6]: 67 ± 21.5 nmol O2 min^-1 mg protein^-1 | RC (State 3/ State 4), respiratory control [1, 6]: 1.5 ± 0.4 | State 3 oxygen consumption rate [1, 6]: 125 ± 61 nmol O2 min^-1 mg protein^-1 | State 4 oxygen consumption rate [1, 6]: 79 ± 30 nmol O2 min^-1 mg protein^-1 | Net State 3 oxygen consumption rate [1, 7]: 63 ± 13 | Pseudo State 4 oxygen consumption rate [1, 7]: 80 ± 10 | RC (State 3/ State 4) [1, 7]: 1.9 ± 0.5 | State 3 oxygen consumption rate [1, 7]: 143 ± 18 | State 4 oxygen consumption rate [1, 7]: 73 ± 7.5 | Net State 3 oxygen consumption rate [1, 8]: 56.5 ± 21 | Pseudo State 4 oxygen consumption rate [1, 8]: 90 ± 31 | RC (State 3/ State 4) [1, 8]: 1.7 ± 0.1 | State 3 oxygen consumption rate [1, 8]: 147± 23 | State 4 oxygen consumption rate [1, 8]: 84 ± 15 | Net State 3 oxygen consumption rate [1, 9]: 58.3 ± 63 | Pseudo State 4 oxygen consumption rate [1, 9]: 83 ± 23 | RC (State 3/ State 4) [1, 9]: 1.9 ± 0.3 | State 3 oxygen consumption rate [1, 9]: 141.5± 65 | State 4 oxygen consumption rate [1, 9]: 70 ± 28 | Net State 3 oxygen consumption rate [1, 10]: 26 ± 46 | Pseudo State 4 oxygen consumption rate [1, 10]: 82 ± 34 | RC (State 3/ State 4) [1, 10]: 1.8 ± 0.4 | State 3 oxygen consumption rate [1, 10]: 104 ± 24 | State 4 oxygen consumption rate [1, 10]: 56.5 ± 7 | increase of state 4 respiration rates (times) ([1]; hepatoma mitochondria, GM): 2.3–2.4 times | OxPhos flux (HeLa cells; +Aur 1.7 μM): 2.6 ± 0.5 nmol O2 min^-1 mg protein^-1 | OxPhos flux (MDA-MB-231 cells; +Aur 0.8 μM): 2.5 ± 0.5 nmol O2 min^-1 mg protein^-1 | IC50 (Cervix HeLa cells): 1.7 ± 0.4 µM | effect on proliferation after shorter exposure (Cervix HeLa cells): < 15% | TI ratio (3T3/ cancer cells) (Cervix HeLa cells): 25 | TI ratio (H9C2/cancer cells) (Cervix HeLa cells): 46 | inhibition of OxPhos and glycolysis fluxes ([2]; HeLa and MDA-MB-231 cells, Aur at IC50): 48–75%

Cc1ccc(Cl)c(Nc2ccccc2C(=O)O)c1Cl [MA, Meclofenamic acid]
Net State 3 oxygen consumption rate [1, 11]: 26 ± 13 | Pseudo State 4 oxygen consumption rate [1, 11]: 19 ± 4 (3) | RC (State 3/ State 4) [1, 11]: 1 (3) | State 3 oxygen consumption rate [1, 11]: 45 ± 10 (3) | State 4 oxygen consumption rate [1, 11]: 45 ± 10 (3) | Net State 3 oxygen consumption rate [1, 12]: 0 | RC (State 3/ State 4) [1, 12]: 1 (3) | State 3 oxygen consumption rate [1, 12]: 36 ± 7 (3) | State 4 oxygen consumption rate [1, 12]: 36 ± 7 (3) | Pseudo State 4 oxygen consumption rate ([1]; 5 mM Glutamate/0.1 mM Malate, 10 μM MA, in nmol O2/min/mg protein): 45 ± 15 (3) | OxPhos flux (HeLa cells; +MA 6 μM): 1.1 ± 0.3 nmol O2 min^-1 mg protein^-1 | OxPhos flux (MDA-MB-231 cells; +MA 50 μM): 3.1 ± 2 nmol O2 min^-1 mg protein^-1 | effect on proliferation after shorter exposure (Cervix HeLa cells): < 15% | IC50 (Cervix HeLa cells; Homo sapiens): 6 ± 3 µM | TI ratio (3T3/ cancer cells) (Cervix HeLa cells): 17 | TI ratio (H9C2/cancer cells) (Cervix HeLa cells): 17 | inhibition of OxPhos flux ([2]; MA 6–50 μM (Table 2)): 31–66%
